Measurements from patent publication US6288051A, “7 α-(5-methylaminopentyl)-estratrienes, process for their production, pharmaceutical preparations that contain these 7 α(5-methylaminopentyl)-estratrienes as well as their use for the production of pharmaceutical agents” (Schering Aktiengesellschaft, priority 1996, dated 2001).
Where two headings read alike, the source gives them in different places.

What was measured:
human estrogen receptor = biological target: T1, human estrogen receptor (Homo sapiens, UniProt P03372); experiment: Transactivation assay, HeLa cells transfixed with human estrogen receptor-expression vector (HEGO) and Vit-TK-CAT reporter gene; assay type: cell-based
T1 construct: expressed in transfected cells; host or cells: HeLa
T1 sequence (P03372 1-595): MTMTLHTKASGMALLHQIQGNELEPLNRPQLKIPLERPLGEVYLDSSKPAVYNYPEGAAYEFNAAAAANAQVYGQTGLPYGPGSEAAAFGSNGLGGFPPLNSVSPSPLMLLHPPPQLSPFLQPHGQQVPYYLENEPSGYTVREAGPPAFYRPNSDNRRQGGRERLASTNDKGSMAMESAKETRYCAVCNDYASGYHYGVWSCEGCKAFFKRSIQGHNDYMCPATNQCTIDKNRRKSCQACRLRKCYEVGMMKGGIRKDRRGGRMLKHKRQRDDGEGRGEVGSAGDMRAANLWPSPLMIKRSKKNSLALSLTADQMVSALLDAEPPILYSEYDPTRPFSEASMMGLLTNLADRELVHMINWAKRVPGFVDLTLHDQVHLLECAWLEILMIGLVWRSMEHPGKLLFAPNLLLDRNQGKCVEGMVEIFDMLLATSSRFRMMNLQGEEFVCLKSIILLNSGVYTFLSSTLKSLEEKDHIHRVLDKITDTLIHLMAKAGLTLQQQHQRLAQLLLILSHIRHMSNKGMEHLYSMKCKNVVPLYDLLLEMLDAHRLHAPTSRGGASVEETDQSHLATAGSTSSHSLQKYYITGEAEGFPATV
Procedure: (§1) The antiestrogenic action of the compounds according to the invention was determined in transactivation assays [Demirpence, E.; Duchesne M.-J.; Badia, E.; Gagne, D. and Pons, M.: MVLN Cells: A Bioluminescent MCF-7-Derived Cell Line to Study the Modulation of Estrogenic Activity; J. Steroid. Molec. Biol. Vol. 46, No. 3, 355-364 (1993) as well as Berry, M.; Metzeger D.; Chambon, P.: Role of the Two Activating Domains of the Estrogen Receptor in the Cell-type and Promoter-context Dependent Agonistic Activity of the Anti-estrogen 4-Hydroxytamoxifen; The EMBO Journal Vol. 9, 2811-2818 (1990)].
The HeLa cells are transfixed with human estrogen receptor-expression vector (HEGO) and Vit-TK-CAT reporter genes, and the MVLN cells are transfixed with reporter gene Vit-TK-LUC: […]

MVLN cells = experiment: Transactivation assay, MVLN cells transfixed with reporter gene Vit-TK-LUC; assay type: cell-based; details: Homo sapiens, read-out: IC50 [nM] MVLN cells
Procedure: as §1
The IC50 values for the new compounds lie in the nanomolar range. […] The HeLa cells are transfixed with human estrogen receptor-expression vector (HEGO) and Vit-TK-CAT reporter genes, and the MVLN cells are transfixed with reporter gene Vit-TK-LUC: […]

[1] = tested on: uterus growth (estradiol benzoate); experiment: Uterus growth test in infantile rats (antiestrogenic action); assay type: in vivo, rat; details: differences highly significant (FIG. 1 and 2)
Source text: 1. Uterus growth test in infantile rats, s.c. and p.o. (test for antiestrogenic action)
1. Uterus Growth Test in Infantile Rats (Antiestrogenic Action)
In rodents, the uterus reacts to the administration of estrogens with an increase in weight (both proliferation and water retention). This growth is to be inhibited in a dose-dependent-manner by simultaneous administration of compounds with an antiestrogenic action.
Infantile female rats at a weight of 35-45 g at the beginning of the test, 5-6 animals per dose.
Formulation and Administration of the Substances: […]
Both for s.c. and for p.o. administration, the substances are dissolved in 1 part of ethanol (E) and made up with 9 parts of peanut oil (EO).
Young rats that have just been weaned from their mothers are delivered one day before the beginning of treatment for acclimatization and are immediately supplied with food--still in the animal cage. […] The wet weights (without contents) are determined from the prepared uteri. […]
For each group, the average values with standard deviation (X+SD), as well as the significance of the differences compared to the control group (EB) in the Dunnett Test (p<0.05), are determined from the relative organ weights (mg/100 g of body weight). […] The relative effects of the test substances are determined by covariance and regression analysis.

MXT breast neoplasm = experiment: Tumor-inhibiting effect on hormone-dependent MXT(+) breast cancer in mice; assay type: in vivo, mouse; details: oral
Source text: 2.1 MXT breast neoplasm in mice 2.1. Tumor-Inhibiting Effect on Hormone-Dependent […] Cancer in Mice Principle of the Method The MXT(+)-breast cancer is an estrogen- and progesterone receptor-positivetumor that was originally produced by induction with urethane and is then transplanted onward in series. Growth can be inhibited by ovariectomy and antiestrogens. This model is therefore very well suited for studying the tumor-inhibiting action of endocrinotherapeutic agents. Execution of the Test Animal Material Adult, female BDFI-mice (7-10 weeks old; weight 18-21 g). Standard care conditions. Formulation and Administration of Test Substances The test substances are dissolved in ethanol+peanut oil (1+9), and the one-time dose is administered at a volume of 0.1 ml s.c. In the case of oral administration, the test substance is dissolved in ethanol+peanut oil (1+9), and the daily dose is administered at a volume of 0.1 ml. The treatment begins either immediately after tumor implantation or 2-3 weeks thereafter (treatment of established tumors). […] Tumor growth is determined by ascertaining the tumor surface area with the aid of a sliding gauge. The tumor surface area is calculated from the product of the longest diameter and the tumor diameter that is perpendicular to said longest diameter. […] Analysis Average values ±SE of tumor surface areas are determined. […]

[2] = tested on: DMBA-induced breast cancer; experiment: DMBA-induced breast cancer in rats; assay type: in vivo, rat; details: for inhibition of tumor growth: oral, 3 mg/kg/day (FIG. 4)
Source text: 2.2 DMBA*-induced breast cancer in rats
2.2. Influencing Tumor Growth in the […] Model in Rats (DMBA Tumor Model)
*9,10-Dimethyl-1,2-benanthracene
The growth of the DMBA-induced breast neoplasm of rats is largely dependent on estrogens and prolactin. Active antiestrogens, antigestagens, and aromatase inhibitors result in the inhibition of tumor growth, and substances that have antigonadotropic and androgenic properties also exert a tumor-inhibiting action.
45-47-day-old female rats (Sprague-Dawley, breeder ZiH or Mollegard), 8-10 animals per group.
The animals receive 10 mg of DMBA orally on a one-time basis. Then, the animals are examined weekly by palpation for tumor development. Six to 10 weeks after DNBA treatment, approximately 1 to 10 tumors develop per animal. The tumor size is determined once a week with the aid of a sliding gauge. If at least one tumor has reached a specific size (150 mm^2 of tumor surface area), an ovariectomy is performed on the animals, or the treatment of the animals with the test substance begins. The treatment is carried out in most cases daily for a period of about 28 days (for details on execution, see Test Plan). The tumor size is subsequently determined once a week.
The total tumor size per animal is determined before the beginning of treatment (initial values). For each group, the average values of the percentage changes of the tumor size relative to the initial value are then calculated. In addition, the percentage of animals per group is determined, whose tumors in each case: (1) have totally disappeared (total regression); partially disappeared (partial regression); (3) are unchanged (no change); or (4) are further enlarged (enlargement).
(§2) The values that are found are tested for significance in the Dunnett Test and are plotted graphically.

[3] = tested on: NMU-induced breast cancer; experiment: NMU-induced breast cancer in rats; assay type: in vivo, rat
Source text: 2.3 NNMU^+ -induced breast cancer in rats
2.3 Influencing of Tumor Growth in the NMU^+ Model in Rats (MM Tumor Model)
^+ N-Methyl-N-nitrosourea
The growth of the NMU-induced breast neoplasm of rats is largely dependent on estrogens and, in contrast to the DMBA tumor model, less on prolactin. Active antiestrogens, aromatase inhibitors, and antigestagens lead to the inhibition of tumor growth. Substances with antigonadotrophic properties also exert a tumor-inhibiting action.
Female rats (Sprague-Dawley)
NMU=i.v., test substance: s.c./p.o. […]
p.o. = 0.1 or 0.2 ml/100 g/d in ethanol + peanut oil (1 + 9)
s.c. = 0.1 ml/100 g/d in ethanol + peanut oil (1 + 9)
The animals receive 50 mg/kg of NMU i.v. on a one-time basis. Then, the animals are examined once a week by palpation for tumor development. About 6-8 weeks after NMU treatment, one or more tumors develop per animal. At a minimum size of 150 mm^2 /tumor/animal, daily treatment (7× a week) begins with the test substance, and the determination of body weight+tumor size is done (with the aid of a sliding gauge) (1×/week).
as §2

`CN(CCCCC[C@@H]1Cc2cc(O)ccc2[C@H]2CC[C@]3(C)[C@@H](O)CC[C@H]3[C@H]12)CCCSCCCC(F)(F)C(F)(F)F` [Example 1, 7α-{5-[N-Methyl-N-3-(4,4,5,5,5-pentafluoropentylthio)-propylamino]-pentyl}-estra-1,3,5(10)-triene-3,17β-diol] was tested, and the IC50 (human estrogen receptor) was 0.3 nM, the IC50 (MVLN cells; MVLN) was 1 nM and the “relative antiestrogenic activity vs 7α-[9-(4,4,5,5,5-pentafluoropentanesulfinyl)-nonyl]-estra-1,3,5(10)-triene-3,17β-diol” value ([1]; oral administration) was 4.7 times. The “relative antiestrogenic activity vs 7α-[9-(4,4,5,5,5-pentafluoropentanesulfinyl)-nonyl]-estra-1,3,5(10)-triene-3,17β-diol” value ([1]; subcutaneous administration) was 5.4 times, the “inhibition of tumor growth” value (MXT breast neoplasm; 14 days of treatment, 10 mg/kg/day (FIG. 3)) was “inhibits tumor growth as strongly as an ovariectomy” and the “activity compared to 7α-[9-(4,4,5,5,5-pentafluoropentanesulfinyl)-nonyl]-estra-1,3,5(10)-triene-3,17β-diol” value (MXT breast neoplasm; MXT, 14 days, 10 mg/kg/day) was “more strongly active”. For the same compound, the “activity compared to tamoxifen (TAM)” value ([2]; DMBA, oral (FIG. 4)) was “even more strongly active than tamoxifen (TAM)”, the “inhibition of tumor growth” value [2] was “completely inhibits tumor growth (no growth)” and the “activity compared to 7α-[9-(4,4,5,5,5-pentafluoropentanesulfinyl)-nonyl]-estra-1,3,5(10)-triene-3,17β-diol” value ([3]; NMU, oral) was “clearly more strongly active”. The “inhibition of tumor growth” value ([3]; oral, 10 mg/kg/day) was “complete inhibition of tumor growth” and the “inhibition of tumor growth, dose dependence” value ([3]; orally administered (FIG. 5)) was “inhibits tumor growth in a dose-dependent manner”.
With `CN(CCCCC[C@@H]1Cc2cc(O)ccc2[C@H]2CC[C@@]3(C)[C@@H](CC[C@]3(C)O)[C@H]12)CCCSCCCC(F)(F)C(F)(F)F` [Example 2, 17α-Methyl-7α-{5-[N-methyl-N-3-(4,4,5,5,5-pentafluoropentyl-thio)-propylamino]-pentyl}-estra-1,3,5(10)-triene-3,17β-diol] the IC50 (human estrogen receptor) was 0.2 nM and the IC50 (MVLN cells; MVLN) was 0.6 nM.
`C#C[C@]1(O)CC[C@H]2[C@@H]3[C@H](CCCCCN(C)CCCSCCCC(F)(F)C(F)(F)F)Cc4cc(O)ccc4[C@H]3CC[C@@]21C` [Example 3, 17α-Ethinyl-7α-{5-[N-methyl-N-3-(4,4,5,5,5-pentafluoropentylthio)-propylamino]-pentyl}-estra-1,3,5(10)-triene-3,17β-diol] was tested, and the IC50 (human estrogen receptor) was 1 nM and the IC50 (MVLN cells; MVLN) was 0.6 nM.
In the case of `CN(CCCCC[C@@H]1Cc2cc(O)ccc2[C@H]2CC[C@]3(C)[C@@H](O)CC[C@H]3[C@H]12)CCS(=O)(=O)CCCC(F)(F)C(F)(F)F` [Example 4, 7α-{5-[N-Methyl-N-2-(4,4,5,5,5-pentafluoropentanesulfonyl)-ethylamino]-pentyl}-estra-1,3,5(10)-triene-3,17β-diol], the IC50 (human estrogen receptor) is reported as 0.16 nM and the IC50 (MVLN cells; MVLN) is reported as 1.3 nM.
For `CN(CCCCC[C@@H]1Cc2cc(O)ccc2[C@H]2CC[C@]3(C)[C@@H](O)CC[C@H]3[C@H]12)CCCS(=O)(=O)CCCC(F)(F)C(F)(F)F` [Example 5, 7α-{5-[N-Methyl-N-3-(4,4,5,5,5-pentafluoropentanesulfonyl)-propylamino]-pentyl}-estra-1,3,5(10)-triene-3,17β-diol], the IC50 (human estrogen receptor) was 0.3 nM and the IC50 (MVLN cells; MVLN) was 0.66 nM.
In the case of `CN(CCCCC[C@@H]1Cc2cc(O)ccc2[C@H]2CC[C@]3(C)[C@@H](O)CC[C@H]3[C@H]12)CCC[S+]([O-])CCCC(F)(F)C(F)(F)F` (stereo partly drawn) [Example 6, 7α-{5-[N-Methyl-N-3-(4,4,5,5,5-pentafluoropentanesulfinyl)-propylamino]-pentyl}-estra-1,3,5(10)-triene-3,17β-diol], the IC50 (human estrogen receptor) is reported as 0.1 nM and the IC50 (MVLN cells; MVLN) is reported as 1 nM.
In the case of `C[C@]12CC[C@@H]3c4ccc(O)cc4C[C@@H](CCCCCCCCC[S+]([O-])CCCC(F)(F)C(F)(F)F)[C@H]3[C@@H]1CC[C@@H]2O` (stereo partly drawn) [Reference, 7α-[9-(4,4,5,5,5-pentafluoropentanesulfinyl)-nonyl]-estra-1,3,5(10)-triene-3,17β-diol, reference compound], the IC50 (MVLN cells; MVLN cells, Vit-TK-LUC) is reported as 6 nM and the “inhibition of tumor growth” value [2] is reported as “only a slight action”.
